Test results published in patent US7700647B2, “Fluorinated bis (phthalic anhydride) and method for producing the same” (priority 2003, dated 2010).

Experiments:
Assay type in all cases: physicochemical
[1] = Absorbance of acetone solution measured with a spectrophotometer (coloration); details: wavelength 360 nm; 0.5 g dissolved in acetone to 10 g total
Procedure: 0.5 g of 4,4′-[(2,3,5,6-tetrafluoro-1,4-phenylene)-bis(oxy)]bis(3,5,6-trifluorophthalic anhydride) obtained in the above-mentioned Preparation Example 4 was dissolved in acetone and adjusted so as to give 10 g of the total amount of the mixture. The absorbance in the visible region of this solution was measured with a spectrophotometer (UV-3100 manufactured by Shimadzu Corporation). The absorbance of the same compound prepared in the above-mentioned Comparative Preparation Example 2 was similarly measured.

[2] = Specific surface area by Brunauer-Emmerit-Teller (BET) method; details: Model NOVA 2000
Procedure: Each specific surface area of 4,4′-[(2,3,5,6-tetrafluoro-1,4-phenylene)bis(oxy)]bis(3,5,6-trifluorophthalic anhydride) obtained in the above-mentioned Preparation Example 4 and Comparative Preparation Example 2 was measured.
The specific surface area was measured using a Brunauer-Emmerit-Teller (BET) method (Model NOVA 2000 manufactured by Quantachrome Corporation).

[3] = Time to become a homogeneous solution when stirred with diamine in N,N-dimethylacetamide; details: stirred at room temperature
Procedure: Into a 100 milliliter—three necked flask were charged 14.51 g (24.92 mmol) of 4,4′-[(2,3,5,6-tetrafluoro-1,4-phenylene)bis(oxy)]bis(3,5,6-trifluorophthalic anhydride) obtained in Preparation Example 4, 4.48 g (24.92 mmol) of 1,3-diamino-2,4,5,6-tetrafluorobenzene and 31 g of N,N-dimethylacetamide. As this mixture was stirred at room temperature in an atmosphere of nitrogen, it took about 30 minutes before it became a homogeneous solution. By leaving standing further for 4 days, a light-yellow polyamic acid solution having a high viscosity was obtained.
Raw materials were charged into a three necked flask in the same manner as that of the above-mentioned Preparation Example 5 except for using a substance obtained in the above Comparative Preparation Example 2 instead of a substance obtained in the above Preparation Example 4 as the 4,4′-[(2,3,5,6-tetrafluoro-1,4-phenylene)bis(oxy)]bis(3,5,6-trifluorophthalic anhydride). As this mixture was stirred at room temperature as with the above-mentioned Preparation Example 5, it took about 1 hour before it became a homogeneous solution. By leaving standing further for 4 days, a yellow polyamic acid solution was obtained, but its viscosity was low. When its weight-average molecular weight was measured in the same manner as that of the above-mentioned Preparation Example 5, it was 6.04×10^4.

| Structure (SMILES) | Molar absorption coefficient [1] | Specific surface area [2] | Time before mixture became a homogeneous solution ([3]; same manner as Preparation Example 5, N,N-dimethylacetamide) | Time before mixture became a homogeneous solution ([3]; 14.51 g with 4.48 g 1,3-diamino-2,4,5,6-tetrafluorobenzene in 31 g N,N-dimethylacetamide, nitrogen) |
| --- | --- | --- | --- | --- |
| O=C1OC(=O)c2c(F)c(Oc3c(F)c(F)c(Oc4c(F)c(F)c5c(c4F)C(=O)OC5=O)c(F)c3F)c(F)c(F)c21 [Comparative Preparation Example 2, 4,4′-[(2,3,5,6-tetrafluoro-1,4-phenylene)bis(oxy)]bis(3,5,6-trifluorophthalic anhydride)] | 0.672 L/mol/cm | 2.869 m^2/g | about 1 hour |  |
| O=C1OC(=O)c2c(F)c(Oc3c(F)c(F)c(Oc4c(F)c(F)c5c(c4F)C(=O)OC5=O)c(F)c3F)c(F)c(F)c21 [Preparation Example 4, 4,4′-[(2,3,5,6-tetrafluoro-1,4-phenylene)bis(oxy)]bis(3,5,6-trifluorophthalic anhydride)] | 0.258 L/mol/cm | 4.403 m^2/g |  | about 30 minutes |
